Experimental data as given in patent US6436921B1, “Carbapenem derivatives and a preparation method thereof” (Korea Institute of Science and Technology, priority 1997, dated 2002).
Values after ≈ are worked out from the molar mass of the structure shown.

Legend:
[1] = test system: Enterobacter cloacae 1321E; experiment: Antibacterial activity test (agar dilution MIC); type: cell-based; conditions: for MIC: read-out: Minimum inhibitory concentration
Experimental: (§1) Gram-positive Streptococcus and Staphylococcus and Gram-negative Escherichia coli, Pseudomonas, Salmonella, Klebsiella and Enterobacter were selected for the test. After the cells were diluted and cultured in agar, the compounds of the present invention were treated to obtain the minimum inhibitory concentration in the units of μg/ml.

Enterobacter cloacae P99 = experiment: Antibacterial activity test (agar dilution MIC); type: cell-based; conditions: for MIC: read-out: Minimum inhibitory concentration
Experimental: as §1

Escherichia coli 078 [2] = experiment: Antibacterial activity test (agar dilution MIC); type: cell-based; conditions: Escherichia coli 078, agar; for MIC: read-out: Minimum inhibitory concentration
Experimental: as §1

Escherichia coli 1507E = experiment: Antibacterial activity test (agar dilution MIC); type: cell-based; conditions: for MIC: read-out: Minimum inhibitory concentration
Experimental: as §1

Escherichia coli DC0 = experiment: Antibacterial activity test (agar dilution MIC); type: cell-based; conditions: for MIC: read-out: Minimum inhibitory concentration
Experimental: as §1

Escherichia coli TEM = experiment: Antibacterial activity test (agar dilution MIC); type: cell-based; conditions: for MIC: Escherichia coli, read-out: Minimum inhibitory concentration
Experimental: as §1

[3] = test system: Klebsiella aerogenes 1522E; experiment: Antibacterial activity test (agar dilution MIC); type: cell-based; conditions: for MIC: read-out: Minimum inhibitory concentration
Experimental: as §1

Klebsiella oxytoca 1082E = experiment: Antibacterial activity test (agar dilution MIC); type: cell-based; conditions: for MIC: read-out: Minimum inhibitory concentration
Experimental: as §1

[4] = test system: Pseudomonas aeruginosa 1592E; experiment: Antibacterial activity test (agar dilution MIC); type: cell-based; conditions: for MIC: read-out: Minimum inhibitory concentration
Experimental: as §1

[5] = test system: Pseudomonas aeruginosa 1771M; experiment: Antibacterial activity test (agar dilution MIC); type: cell-based; conditions: Pseudomonas aeruginosa, 1771M, read-out: Minimum inhibitory concentration
Experimental: as §1

[6] = test system: Pseudomonas aeruginosa 1771; experiment: Antibacterial activity test (agar dilution MIC); type: cell-based; conditions: Pseudomonas aeruginosa 1771, agar; for MIC: read-out: Minimum inhibitory concentration
Experimental: as §1

[7] = test system: Pseudomonas aeruginosa 9027; experiment: Antibacterial activity test (agar dilution MIC); type: cell-based; conditions: Pseudomonas aeruginosa 9027, agar; for MIC: read-out: Minimum inhibitory concentration
Experimental: as §1

Salmonella typhimurium = experiment: Antibacterial activity test (agar dilution MIC); type: cell-based; conditions: for MIC: Salmonella enterica, read-out: Minimum inhibitory concentration
Experimental: as §1

[8] = test system: Staphylococcus aureus 285; experiment: Antibacterial activity test (agar dilution MIC); type: cell-based; conditions: Staphylococcus aureus 285, agar; for MIC: read-out: Minimum inhibitory concentration
Experimental: as §1

[9] = test system: Staphylococcus aureus 503; experiment: Antibacterial activity test (agar dilution MIC); type: cell-based; conditions: Staphylococcus aureus 503, agar; for MIC: read-out: Minimum inhibitory concentration
Experimental: as §1

[10] = test system: Staphylococcus aureus SG511; experiment: Antibacterial activity test (agar dilution MIC); type: cell-based; conditions: for MIC: read-out: Minimum inhibitory concentration
Experimental: as §1

[11] = test system: Streptococcus faecium MD8b; experiment: Antibacterial activity test (agar dilution MIC); type: cell-based; conditions: for MIC: Enterococcus faecium, read-out: Minimum inhibitory concentration
Experimental: as §1

[12] = test system: Streptococcus pyogenes 308A; experiment: Antibacterial activity test (agar dilution MIC); type: cell-based; conditions: for MIC: read-out: Minimum inhibitory concentration
Experimental: as §1

[13] = test system: Streptococcus pyogenes 77A; experiment: Antibacterial activity test (agar dilution MIC); type: cell-based; conditions: for MIC: read-out: Minimum inhibitory concentration
Experimental: as §1

Escherichia coli DC2 = experiment: Antibacterial activity test (agar dilution MIC); type: cell-based; conditions: for MIC: read-out: Minimum inhibitory concentration
Experimental: as §1

[14] = Bioavailability test, subcutaneous injection to mice; type: in vivo
Escherichia coli 078 [15] = experiment: PD50 test using mice; type: in vivo; design: PD50: unit not given beside the values
Description: (§2) This means that ⅓ of the amount of the compound 10 has the same effect as meropenem.
(§3) Streptococcus pyrogenes A 77 and Escherichia coli 078 were selected as gram-positive and gram-negative strains, respectively.

[16] = test system: Streptococcus pyrogenes A 77; experiment: PD50 test using mice; type: in vivo; design: PD50: unit not given beside the values
Description: as §2, §3

renal enzyme (DHP-I) = renal enzyme (DHP-I) (Homo sapiens, UniProt P16444); conditions: FIG. 1
Chain of renal enzyme (DHP-I) (P16444 17-385): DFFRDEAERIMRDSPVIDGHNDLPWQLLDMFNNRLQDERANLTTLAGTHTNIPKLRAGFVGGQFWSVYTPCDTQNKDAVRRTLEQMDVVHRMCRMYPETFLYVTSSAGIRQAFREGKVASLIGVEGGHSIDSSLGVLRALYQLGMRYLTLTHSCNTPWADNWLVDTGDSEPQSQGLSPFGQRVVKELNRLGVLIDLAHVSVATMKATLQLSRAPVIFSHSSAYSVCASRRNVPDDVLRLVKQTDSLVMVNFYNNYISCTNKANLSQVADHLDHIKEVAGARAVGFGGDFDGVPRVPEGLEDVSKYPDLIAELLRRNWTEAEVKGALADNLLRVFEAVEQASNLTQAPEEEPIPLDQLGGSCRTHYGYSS

[17] = target: DHP-I (renal dehydropeptidase-I) (Homo sapiens, UniProt P16444); experiment: in vitro
Chain of DHP-I (renal dehydropeptidase-I) (P16444 17-385): as above

SMILES	MIC [1]	MIC (Enterobacter cloacae P99)	MIC (Escherichia coli 078 [2])	MIC (Escherichia coli 1507E)	MIC (Escherichia coli DC0)	MIC (Escherichia coli TEM)	MIC [3]	MIC (Klebsiella oxytoca 1082E)	MIC [4]	MIC [5]	MIC [6]	MIC [7]	MIC (Salmonella typhimurium)	MIC [8]	MIC [9]	MIC [10]	MIC [11]	MIC [12]	MIC [13]	MIC (Escherichia coli DC2)	also measured
C[C@@H](O)[C@H]1C(=O)N2C(C(=O)O)=C(S[C@@H]3CN[C@H](C(=O)NCCC(N)=O)C3)[C@H](C)[C@H]12 [Compound 1]	0.025 mg/L (≈ 0.0586 µM)	0.049 mg/L (≈ 0.115 µM)	0.025 mg/L (≈ 0.0586 µM)	0.025 mg/L (≈ 0.0586 µM)	0.025 mg/L (≈ 0.0586 µM)	0.025 mg/L (≈ 0.0586 µM)	0.049 mg/L (≈ 0.115 µM)	0.098 mg/L (≈ 0.23 µM)	0.391 mg/L (≈ 0.917 µM)	0.391 mg/L (≈ 0.917 µM)	0.781 mg/L (≈ 1.83 µM)	0.391 mg/L (≈ 0.917 µM)	0.049 mg/L (≈ 0.115 µM)	0.195 mg/L (≈ 0.457 µM)	0.098 mg/L (≈ 0.23 µM)	0.195 mg/L (≈ 0.457 µM)	12.5 mg/L (≈ 29.3 µM)	0.013 mg/L (≈ 0.0305 µM)	0.007 mg/L (≈ 0.0164 µM)		
C[C@@H](O)[C@H]1C(=O)N2C(C(=O)O)=C(S[C@@H]3CN[C@H](C(=O)NCCS(=O)(=O)N4CCCC4)C3)[C@H](C)[C@H]12 [Compound 15]																					Minimum inhibitory concentration [1]: 0.025 mg/L (≈ 0.0484 µM); Minimum inhibitory concentration (Enterobacter cloacae P99): 0.049 mg/L (≈ 0.0948 µM); Minimum inhibitory concentration (Escherichia coli 078 [2]): 0.025 mg/L (≈ 0.0484 µM); Minimum inhibitory concentration (Escherichia coli 1507E): 0.025 mg/L (≈ 0.0484 µM); Minimum inhibitory concentration (Escherichia coli DC0): 0.025 mg/L (≈ 0.0484 µM); Minimum inhibitory concentration (Escherichia coli DC2): 0.049 mg/L (≈ 0.0948 µM); Minimum inhibitory concentration (Escherichia coli TEM; Escherichia coli TEM, agar): 0.025 mg/L (≈ 0.0484 µM); Minimum inhibitory concentration [3]: 0.049 mg/L (≈ 0.0948 µM); Minimum inhibitory concentration (Klebsiella oxytoca 1082E): 0.098 mg/L (≈ 0.19 µM); Minimum inhibitory concentration [4]: 0.391 mg/L (≈ 0.757 µM); Minimum inhibitory concentration [6]: 0.781 mg/L (≈ 1.51 µM); Minimum inhibitory concentration [7]: 0.391 mg/L (≈ 0.757 µM); Minimum inhibitory concentration (Salmonella typhimurium): 0.049 mg/L (≈ 0.0948 µM); Minimum inhibitory concentration [8]: 0.195 mg/L (≈ 0.377 µM); Minimum inhibitory concentration [9]: 0.195 mg/L (≈ 0.377 µM); Minimum inhibitory concentration [10]: 0.195 mg/L (≈ 0.377 µM); Minimum inhibitory concentration [11]: 12.5 mg/L (≈ 24.2 µM); Minimum inhibitory concentration [12]: 0.013 mg/L (≈ 0.0252 µM); Minimum inhibitory concentration [13]: 0.007 mg/L (≈ 0.0135 µM)
CNC(=O)CCNC(=O)[C@@H]1C[C@H](SC2=C(C(=O)O)N3C(=O)[C@H]([C@@H](C)O)[C@H]3[C@H]2C)CN1 [Compound 2]	0.025 mg/L (≈ 0.0568 µM)	0.049 mg/L (≈ 0.111 µM)	0.049 mg/L (≈ 0.111 µM)	0.025 mg/L (≈ 0.0568 µM)	0.049 mg/L (≈ 0.111 µM)	0.025 mg/L (≈ 0.0568 µM)	0.049 mg/L (≈ 0.111 µM)	0.098 mg/L (≈ 0.222 µM)	0.781 mg/L (≈ 1.77 µM)	0.391 mg/L (≈ 0.888 µM)	0.781 mg/L (≈ 1.77 µM)	0.781 mg/L (≈ 1.77 µM)	0.049 mg/L (≈ 0.111 µM)	0.781 mg/L (≈ 1.77 µM)	0.195 mg/L (≈ 0.443 µM)	0.391 mg/L (≈ 0.888 µM)	12.5 mg/L (≈ 28.4 µM)	0.013 mg/L (≈ 0.0295 µM)	0.013 mg/L (≈ 0.0295 µM)	0.098 mg/L (≈ 0.222 µM)	
C[C@@H](O)[C@H]1C(=O)N2C(C(=O)O)=C(S[C@@H]3CN[C@H](C(=O)NCCS(N)(=O)=O)C3)[C@H](C)[C@H]12 [Compound 10]																					half-life ([14]; mouse, in vivo, sc): 19.2 ± 2.4 min; AUC ([14]; mouse, in vivo, sc, AUC 0-3 hr): 11.9 ± 1.13 µg·h/mL; Cmax ([14]; mouse, in vivo, sc, read-out: Cmax): 16 ± 0.96 µg/mL; Tmax ([14]; mouse, in vivo, sc, read-out: Tmax): ≤ 19.8 min; times as efficient as meropenem (bioavailability, Table 4) ([14]; versus meropenem): ca. 3 times; PD50 (Escherichia coli 078 [15]; Escherichia coli 078): 0.47; times more efficient than meropenem (PD50 test) (Escherichia coli 078 [15]; gram-negative strain, versus meropenem): 3 times; PD50 ([16]; Streptococcus pyrogenes A 77): 2.31; times more efficient than meropenem (PD50 test) ([16]; gram-positive strain, versus meropenem): 3 times; stability against DHP-I (in words) (renal enzyme (DHP-I)): a little more stable than meropenem against DHP-I and markedly more stable than imipenem; half-life [17]: > 300 min
CNS(=O)(=O)CCNC(=O)[C@@H]1C[C@H](SC2=C(C(=O)O)N3C(=O)[C@H]([C@@H](C)O)[C@H]3[C@H]2C)CN1 [Compound 11]	0.025 mg/L (≈ 0.0525 µM)	0.049 mg/L (≈ 0.103 µM)	0.025 mg/L (≈ 0.0525 µM)	0.013 mg/L (≈ 0.0273 µM)	0.025 mg/L (≈ 0.0525 µM)	0.013 mg/L (≈ 0.0273 µM)	0.049 mg/L (≈ 0.103 µM)	0.049 mg/L (≈ 0.103 µM)	0.195 mg/L (≈ 0.409 µM)	0.195 mg/L (≈ 0.409 µM)	0.195 mg/L (≈ 0.409 µM)	0.391 mg/L (≈ 0.82 µM)	0.025 mg/L (≈ 0.0525 µM)	0.195 mg/L (≈ 0.409 µM)	0.098 mg/L (≈ 0.206 µM)	0.098 mg/L (≈ 0.206 µM)	6.25 mg/L (≈ 13.1 µM)	0.013 mg/L (≈ 0.0273 µM)	0.004 mg/L (≈ 0.00839 µM)	0.025 mg/L (≈ 0.0525 µM)	
